BindingDB's records for doi:10.1016/j.bmcl.2010.09.092 (University of New Mexico School of Medicine, 2010)

Assay: Inhibition of human alphaVbeta3 receptor expressed in african green monkey Vero E6 cells assessed as inhibition of SNV infection in cells by immunofluorescent assay

Row | Compound | EC50 [nM]
1 | O=C(NCc1cccs1)C(Cc1ccccc1)NS(=O)(=O)c1ccc2nsnc2c1 (racemic) [rac-2-(benzo[c][1,2,5]thiadiazole-5-sulfonamido)-3-phenyl-N-(thiophen-2-ylmethyl)propanamide] | 2.5
2 | O=C(NCc1ccc2c(c1)OCO2)C(Cc1ccccc1)NS(=O)(=O)c1cccc2cccnc12 (racemic) [rac-N-(benzo[d][1,3]dioxol-5-ylmethyl)-3-phenyl-2-(quinoline-8-sulfonamido)propanamide] | 1.6
3 | O=c1c(C=NCc2ccco2)c(CSc2ccc(Cl)cc2)[nH]n1-c1nc2ccccc2s1 [2-(benzo[d]thiazol-2-yl)-5-((4-chlorophenylthio)methyl)-4-((furan-2-ylmethylimino)methyl)-1H-pyrazol-3(2H)-one] | 1.3
